# “And” between values parts separate entries of the source, which are not always exact repeats. Identical values can stand only once. “Also recorded” adds a separate entry of the source. Like-named read-outs stand apart in the source and are kept apart here.
# How the values were obtained:
# LiTryR = target: T1, LiTryR (Leishmania infantum, UniProt A4HSF7); assay: Time-dependent inhibition kinetics of LiTryR (modified DTNB-coupled assay); type: biochemical; settings: for mechanism of LiTryR inhibition: reaction progress curves / kinetic analysis; for α* (overall two-step process): fit to eq 4; for α (initial EI complex): fit to eq 3
# T1 construct: HIS (N); made in house; host or cells: E. coli BL21 (DE3) Rossetta
# Description: The inhibitory constants Ki and Ki* for 19a were calculated following a slightly modified version of the standard DTNB-coupled assay.[52] TS2 was serially diluted (sixfold dilution from 1666 to 52 μM) in a buffer containing 40 mM HEPES (pH 7.5) and 1 mM EDTA. The different TS2 solutions were dispensed (15 μL) in a 96-well microplate. 19a was serially diluted in DMSO (sixfold dilution from 1875 to 445 μM). […] These mixtures (180 μL) were subsequently added to the appropriate wells previously filled with different TS2 solutions. The assay was initiated by addition of 55 μL of buffer containing 40 mM HEPES (pH 7.5), 1 mM EDTA, 272.73 μM NADP^+, 0.01% glycerol, and 3.5 nM recombinant LiTryR using an automated dispensing system (PerkinElmer, Waltham, MA). The order of addition was essential to avoid enzyme preincubation with the inhibitor or the substrates. […] TryR oxidoreductase activity was monitored at 26 °C by an increase in absorbance at 412 nm in an EnSpire Multimode Plate Reader (PerkinElmer, Waltham, MA). Coupling an automated dispenser module to the spectrophotometer enabled real-time detection of the enzymatic reaction, which was crucial for high-quality nonlinear fits of the experimental data and, especially, to estimate the initial velocity of the progress curves in the presence of 19a. To guarantee linearity of the enzyme reaction in the absence of an inhibitor, the analysis was performed with data obtained during the first 20 000 s to avoid TS2 depletion. […] All of the assays were conducted in three independent experiments.
# kobs values were estimated for every 19a concentration at all TS2 concentrations by fitting the values of the TNB concentration produced during each enzymatic reaction to eq 1.[42b],[53] [drawing 2] 1 where vi and vs are the initial and the steady-state velocities, respectively, kobs is the apparent first-order rate constant for the conversion of vi into the steady-state velocity (vs), and d is a parameter that indicates the displacement of the curve on the vertical ordinate and takes into account any nonzero value of the measured signal at time zero caused by some of the reagents. The apparent inhibition constants (Ki^app and Ki*^app) for each TS2 concentration were determined by fitting the kobs values obtained at different 19a concentrations to eq 2 [drawing 3] 2 where Ki^app is the apparent value of the Ki for the initial encounter complex (EI) and Ki*^app is the apparent value of the overall inhibition constant Ki* to form a higher-affinity complex (E*I). k6 is the first-order rate constant that defines the reverse isomerization step that returns E*I to EI.[42a],[53]
# The Ki value for the formation of the EI complex was determined by fitting the Ki^app values obtained at different TS2 concentrations to eq 3. In addition, this graph was used to assess the inhibition modality of 19a during the first equilibrium of its two-step binding mechanism. […] In addition, this graph was used to assess the overall inhibition modality of 19a during its two-step binding mechanism. As explained above, the value obtained for α defines the mode of inhibition.[42a] [drawing 5] 4
# Figure S1. […]
# Lineweaver–Burk plots of reciprocal initial velocities ( vi) versus reciprocals of four TS2
# [1] = test system: L. infantum promastigotes; assay: Leishmanicidal activity on promastigotes (PI exclusion, flow cytometry); type: cell-based, Leishmania infantum; settings: for EC50: Leishmania infantum; for SIp (ratio of EC50 against human cells to EC50 against promastigotes): HepG2 / promastigotes
# How it was run: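 Log-phase L. infantum promastigotes (MCAN/ES/89/IPZ229/1/89) at 2 × 10^6 parasites/mL in RPMI-1640 with 10% FCS, pH 7.2, were drug-treated for 24 h at 26 °C. Viability was scored by flow cytometric propidium iodide exclusion, and EC50 was derived by nonlinear regression.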
# [2] = 24 h at 26 °C, read-out: EC50 promastigotes
# [3] = promastigotes or amastigotes (either form), read-out: EC50 against Leishmania promastigotes or amastigotes
# [4] = fit of Ki*^app to eq 4, read-out: Ki* (overall two-step process)
# [5] = two-step mechanism, fit of Ki^app to eq 3, read-out: Ki (initial EI complex)
# T1 sequence (A4HSF7 1-491): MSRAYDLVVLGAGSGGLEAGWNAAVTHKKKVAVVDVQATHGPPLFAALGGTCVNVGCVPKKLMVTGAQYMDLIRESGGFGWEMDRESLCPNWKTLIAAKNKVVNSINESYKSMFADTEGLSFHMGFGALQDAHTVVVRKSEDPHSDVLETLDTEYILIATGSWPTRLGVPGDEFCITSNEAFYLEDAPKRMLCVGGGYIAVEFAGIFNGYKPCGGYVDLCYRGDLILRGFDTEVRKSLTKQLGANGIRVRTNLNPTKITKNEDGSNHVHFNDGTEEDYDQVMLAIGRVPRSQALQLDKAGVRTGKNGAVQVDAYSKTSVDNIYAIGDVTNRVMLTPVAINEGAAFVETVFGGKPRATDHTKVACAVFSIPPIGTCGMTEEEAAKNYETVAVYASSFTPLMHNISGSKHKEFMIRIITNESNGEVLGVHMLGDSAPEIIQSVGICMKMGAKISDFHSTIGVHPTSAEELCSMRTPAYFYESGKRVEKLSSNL
smiles,measurement,setting,value
NCCCCc1cn(-c2ccc(-c3nc(CCc4ccc5c(c4)CCCN5)cs3)c(OCCN3CCNC3=O)c2)nn1.O=C(O)C(F)(F)F.O=C(O)C(F)(F)F [12q],mechanism of LiTryR inhibition,LiTryR,single-step binding mechanism
same,"α, reversible single-step mechanism of time-dependent inhibition",LiTryR; single-step mechanism (Scheme S4),0.3 ± 0.2
same,Ki,"LiTryR; single-step mechanism (Scheme S4), read-out: Ki, reversible single-step mechanism of time-dependent inhibition",13.6 ± 5.1 µM
NCCCCc1cn(-c2ccc(-c3nc(-c4ccccc4)cs3)c(OCCN3CCNC3=O)c2)nn1.O=C(O)C(F)(F)F [12n],EC50,[1]; [2],5.4 ± 0.08 µM
same,EC50,[1]; [3],< 10 µM
"NCCCCc1cn(-c2ccc(-c3nc(-c4ccccc4)c(-c4ccccc4)s3)c(OCCN3CCNC3=O)c2)nn1.O=C(O)C(F)(F)F [19a, 1-(2-(5-(4-(4-Ammoniobutyl)-1H-1,2,3-triazol-1-yl)-2-(4,5-diphenylthiazol-2-yl)phenoxy)ethyl)imidazolidin-2-one 2,2,2-Trifluoroacetate]","β, noncompetitive hyperbolic inhibition mechanism","LiTryR; DTNB-coupled assay, initial velocities, alpha value of 1",0.5 ± 0.1
same,Ki,"LiTryR; DTNB-coupled assay, initial velocities, alpha value of 1, read-out: Ki, noncompetitive hyperbolic inhibition mechanism",12.7 ± 3.5 µM
same,Ki,"LiTryR; [TS2] 3.1 μM, read-out: Ki*^app",0.6 ± 0.1 µM
same,Ki,"LiTryR; [TS2] 3.1 μM, read-out: Ki^app",8.9 ± 3.1 µM
same,Ki,"LiTryR; [TS2] 6.2 μM, read-out: Ki*^app",0.5 ± 0.1 µM
same,Ki,"LiTryR; [TS2] 6.2 μM, read-out: Ki^app",7.2 ± 1.7 µM
same,Ki,"LiTryR; [TS2] 12.5 μM, read-out: Ki*^app",0.5 ± 0.2 µM
same,Ki,"LiTryR; [TS2] 12.5 μM, read-out: Ki^app",5.2 ± 2.6 µM
same,Ki,"LiTryR; [TS2] 25 μM, read-out: Ki*^app",0.8 ± 0.2 µM
same,Ki,"LiTryR; [TS2] 25 μM, read-out: Ki^app",8.3 ± 3 µM
same,Ki,"LiTryR; [TS2] 50 μM, read-out: Ki*^app",1.4 ± 0.3 µM
same,Ki,"LiTryR; [TS2] 50 μM, read-out: Ki^app",9.3 ± 3.2 µM
same,Ki,"LiTryR; [TS2] 100 μM, read-out: Ki*^app",1.3 ± 0.6 µM
same,Ki,"LiTryR; [TS2] 100 μM, read-out: Ki^app",5 ± 2.7 µM
same,Ki,LiTryR; [4],0.5 ± 0.1 µM
same,α* (overall two-step process),LiTryR,5.5 ± 2.9
same,"k6, value selected as conservative upper value",LiTryR; fixed for fitting to eq 2,≤ 3 × 10^–5 s^–1
same,mechanism of LiTryR inhibition,LiTryR,slow-binding inhibitors; also recorded: nonlinear noncompetitive hyperbolic inhibition mechanism
same,Ki,LiTryR; [5],7.8 ± 1.7 µM
same,α (initial EI complex),LiTryR; two-step mechanism,0.8 ± 0.4
same,SIp (ratio of EC50 against human cells to EC50 against promastigotes),[1],2.5
same,EC50,[1]; [2],10.7 ± 1.3 µM
"NCCCCc1cn(-c2ccc(-c3nc(-c4cccc(-c5csc(-c6ccc(-n7cc(CCCCN)nn7)cc6OCCN6CCNC6=O)n5)c4)cs3)c(OCCN3CCNC3=O)c2)nn1.O=C(O)C(F)(F)F.O=C(O)C(F)(F)F [compound 22, 1,1′-((((1,3-Phenylenebis(thiazole-4,2-diyl))bis(5-(4-(4-ammoniobutyl)-1H-1,2,3-triazol-1-yl)-2,1-phenylene))bis(oxy))bis(ethane-2,1-diyl))bis(imidazolidin-2-one)bis(2,2,2-trifluoroacetate)]",SIp (ratio of EC50 against human cells to EC50 against promastigotes),[1],8.0
same,EC50,[1]; [2],3.8 ± 0.1 µM
NCCCCc1cn(-c2ccc(-c3nc(CCc4ccc5oc6ccccc6c5c4)cs3)c(OCCN3CCNC3=O)c2)nn1.O=C(O)C(F)(F)F [12s],mechanism of LiTryR inhibition,LiTryR,slow-binding inhibitors
"NCCNCc1nccn1-c1ccc(-c2nc(CCc3ccc(-c4ccccc4)cc3)cs2)c(OCCN2CCNC2=O)c1 [compound 3, reference compound]",SIp (ratio of EC50 against human cells to EC50 against promastigotes),[1],2.7 and 2.7/2.7
same,EC50,[1]; [2],5.3 ± 0.3 µM
NCCCc1cn(-c2ccc(-c3nc(CCc4ccc(-c5ccccc5)cc4)cs3)c(OCCN3CCNC3=O)c2)nn1.O=C(O)C(F)(F)F [12i],SIp (ratio of EC50 against human cells to EC50 against promastigotes),[1],10.4
same,EC50,[1]; [2],5.8 ± 0.7 µM
"NCCNCc1nccn1-c1ccc(-c2nc(CCc3ccc4ccccc4c3)cs2)c(OCCN2CCNC2=O)c1 [compound 2, reference compound]",SIp (ratio of EC50 against human cells to EC50 against promastigotes),[1],2.1/2.1
same,EC50,[1]; [2],12.8 ± 0.7 µM
"NCCCCc1cn(-c2ccc(-c3nc(CCc4ccc(-c5ccccc5)cc4)cs3)c(OCCN3CCNC3=O)c2)nn1.O=C(O)C(F)(F)F [12c, 1-(2-(2-(4-(2-([1,1′-Biphenyl]-4-yl)ethyl)thiazol-2-yl)-5-(4-(4-ammoniumbutyl)-1H-1,2,3-triazol-1-yl)phenoxy)ethyl)imidazolidin-2-one 2,2,2-Trifluoroacetate]",mechanism of LiTryR inhibition,LiTryR,slow-binding inhibitors
same,SIp (ratio of EC50 against human cells to EC50 against promastigotes),[1],8.8
same,EC50,[1]; [2],4.9 ± 0.4 µM
same,EC50,[1]; [3],< 10 µM
"NCCCCc1cn(-c2ccc(-c3nc(CCc4ccc5ccccc5c4)cs3)c(OCCN3CCNC3=O)c2)nn1.O=C(O)C(F)(F)F [12b, 1-(2-(5-(4-(4-Ammoniumbutyl)-1H-1,2,3-triazol-1-yl)-2-(4-(2-(naphthalen-2-yl)ethyl)thiazol-2-yl)phenoxy)ethyl)imidazolidin-2-one 2,2,2-Trifluoroacetate]",Ki,LiTryR; [4],2.6 ± 0.6 µM
same,α* (overall two-step process),LiTryR,1.3 ± 0.6
same,mechanism of LiTryR inhibition,LiTryR,slow-binding inhibitors; also recorded: two-step process of enzyme isomerization
same,Ki,LiTryR; [5],10 ± 2.7 µM
same,α (initial EI complex),LiTryR; two-step mechanism,2.0 ± 1.3
same,SIp (ratio of EC50 against human cells to EC50 against promastigotes),[1],4.0
same,EC50,[1]; [2],8.4 ± 0.3 µM
same,EC50,[1]; [3],< 10 µM
NCCCCc1cn(-c2ccc(-c3nc(CCc4ccc5c(c4)CCO5)cs3)c(OCCN3CCNC3=O)c2)nn1.O=C(O)C(F)(F)F [12r],mechanism of LiTryR inhibition,LiTryR,slow-binding inhibitors
same,SIp (ratio of EC50 against human cells to EC50 against promastigotes),[1],1.2
same,EC50,[1]; [2],23.8 ± 0.5 µM

# From paper PMC8480782, “Efficient Dimerization Disruption of Leishmania infantum Trypanothione Reductase by Triazole-phenyl-thiazoles” (Journal of Medicinal Chemistry, 2021)
